Key:
[1] = test system: A549 cells (Kras G12S mutation); test: Cell proliferation inhibition experiment, 3D cell model, CellTiter-Glo (A549); format: cell-based, human; conditions: A549, 2% FBS F-12K, 384-well sphere plate, cultured 5 days with compound
Experimental: (§1) NCI-H358 was a human non-small cell lung cancer cell line with Kras G12C mutation, cultured in 10% FBS RPMI-1640 medium; A549 was a human lung adenocarcinoma cell line with Kras G12S mutation, cultured in 10% FBS F-12K medium. The cells in the logarithmic growth phase was taken, digested with trypsin EDTA, collected and counted, and H358 was adjusted to 1.8E4 cells/ml using 2% FBS RPMI-1640 medium, and A549 was adjusted to 8.9E3 cells/ml using 2% FBS F-12K medium; 800 (45 μl) H358 or 400 (45 μl) A549 cells were seeded in a 384-well sphere plate respectively, cultured overnight to establish a 3D cell model. DMSO was used to prepare 1000× compound 3.16-fold gradient concentration stock solution, and 2% FBS medium was used to dilute 100-fold to 10× compound stock solution. On the second day after cell seeding, 5 μl 10× compound stock solution was added to each cell culture well, the final concentration was 1×, and DMSO content was 0.1%. DMSO was used as the experimental control (control) and 2% FBS medium as the blank control (blank). After the compound and cells were added and cultured for 5 days, 25 μl CellTiter-Glo working solution was added to each well, mixed at 400 rpm and incubated for 30 minutes. After standing 30 minutes at room temperature, 40 μl of the mixture was transfered to a 384-well plate with a non-transparent white bottom, the luminescence chemiluminescence value was read, and the cells proliferation inhibition rate IR (%)=(RLU control-RLU compound)/(RLU control-RLU blank)×100% was calculated, Prism 6 four-parameter method was used to fit the compound's gradient dilution concentration and the corresponding cell proliferation inhibition rate, and the IC50 value was calculated.

[2] = test system: Kras G12C mutant NCI-H358 cells; test: Cell proliferation inhibition experiment, 3D cell model, CellTiter-Glo (H358); format: cell-based, human; conditions: NCI-H358, 2% FBS RPMI-1640, 384-well sphere plate, cultured 5 days with compound
Experimental: as §1

SMILES | IC50 ([1]; Homo sapiens, A549, 120 h) [nM] | IC50 ([2]; Homo sapiens, NCI-H358, 120 h) [nM] | IC50 [1] [nM] | IC50 [2] [nM]
C=CC(=O)N1CCN(c2nc(N3CC(N(C)C)C3)nc3c(OC4CC4)c(-c4c(C)ccc5[nH]ncc45)c(Cl)cc23)CC1 [Compound Z33, 1-(4-(6-chloro-8-cyclopropoxy-2-(3-(dimethylamino)azetidine-1-yl)-7-(5-methyl-1H-indazol-4-yl)quinazolin-4-yl)piperazin-1-yl)prop-2-en-1-one] | > 5000 | 39 |  | 
C=CC(=O)N1CCN(c2nc(N3CCC(N(C)C)CC3)nc3c(OC4CC4)c(-c4c(C)ccc5[nH]ncc45)c(Cl)cc23)CC1 [Compound Z34, 1-(4-(6-chloro-8-cyclopropoxy-2-(4-(dimethylamino)piperidin-1-yl)-7-(5-methyl-1H-indazol-4-yl)quinazolin-4-yl)piperazin-1-yl)prop-2-en-1-one] | > 30000 | 38 |  | 
C=CC(=O)N1CCN(c2nc(N3CCC(N(C)C)C3)nc3c(OC4CC4)c(-c4c(C)ccc5[nH]ncc45)c(Cl)cc23)CC1 (centres unmarked) [Compound Z35, 1-(4-(6-chloro-8-cyclopropoxy-2-(3-(dimethylamino)pyrrolidin-1-yl)-7-(5-methyl-1H-indazol-4-yl)quinazolin-4-yl)piperazin-1-yl)prop-2-en-1-one] | > 5000 | 43 |  | 
C=CC(=O)N1CCN(c2nc(OCCN(C)C)nc3c(OC4CC4)c(-c4c(C)ccc5[nH]ncc45)c(Cl)cc23)CC1 [Compound Z36] | > 30000 | 16 |  | 
C=CC(=O)N1CCN(c2nc(N3CCN(C)CC3)nc3c(OC4CC4)c(-c4c(C)ccc5[nH]ncc45)c(Cl)cc23)CC1 [Compound Z37] | > 5000 | 51 |  | 
C=CC(=O)N1CCN(c2nc(OC[C@@H]3C[C@@H](F)CN3C)nc3c(OC4CC4)c(-c4c(C)ccc5[nH]ncc45)c(Cl)cc23)CC1 [Compound Z38, 1-(4-(6-chloro-8-cyclopropoxy-2-((((2S, 4R)-4-fluoro-1-methylpyrrolidin-2-yl)methoxy)-7]-(5-methyl-1H-indazol-4-yl)quinazolin-4-yl)piperazin-1-yl)prop-2-en-1-one] | > 30000 | 19 |  | 
C=CC(=O)N1CCN(c2nc(O[C@@H]3CCN(C)C3)nc3c(OC4CC4)c(-c4c(C)ccc5[nH]ncc45)c(Cl)cc23)CC1 [Compound Z39] | > 5000 | 21 |  | 
C=CC(=O)N1CCN(c2nc(O[C@H]3CCN(C)C3)nc3c(OC4CC4)c(-c4c(C)ccc5[nH]ncc45)c(Cl)cc23)CC1 [Compound Z40] |  |  | > 1000 | 25
C=CC(=O)N1[C@@H]2CC[C@H]1CN(c1nc(OC[C@@H]3CCCN3C)nc3c(OC4CC4)c(-c4c(C)ccc5[nH]ncc45)c(Cl)cc13)C2 [Compound Z42, 1-((1R, 5S)-3-(6-chloro-8-cyclopropoxy-7-(5-methyl-1H-indazol-4-yl)-2-(((S)-1-methylpyrrolidin-2-yl)methoxy)quinazolin-4-yl)-3,8-diazabicyclo[3.2.1]octane-8-yl)prop-2-en-1-one] | > 30000 | 331 |  | 
C=CC(=O)N1CCN(c2nc(OC[C@@H]3C[C@H](F)CN3C)nc3c(OC4CC4)c(-c4c(C)ccc5[nH]ncc45)c(Cl)cc23)CC1 [Compound Z45, 1-(4-(6-chloro-8-cyclopropoxy-2-((((2S, 4S)-4-fluoro-1-methylpyrrolidin-2-yl)methoxy)-7]-(5-methyl-1H-indazol-4-yl)quinazolin-4-yl)piperazin-1-yl)prop-2-en-1-one] | > 30000 | 18 |  | 
C=CC(=O)N1CCN(c2nc(OC[C@@H]3CCCN3C)nc3c(OC4CC4)c(-c4c(C)ccc5[nH]ncc45)c(Cl)cc23)C[C@@H]1CC#N [Compound Z46] |  |  | > 30000 | 2
C=CC(=O)N1CCN(c2nc(OC[C@@H]3CCCN3C)nc3c(OC4CC4)c(-c4c(C)ccc5[nH]nc(F)c45)c(Cl)cc23)CC1 [Compound Z47, 1-(4-(6-chloro-8-cyclopropoxy-7-(3-fluoro-5-methyl-1H-indazol-4-yl)-2-((((S)-1-methylpyrrolidin-2-yl))methoxy)quinazolin-4-yl)piperazin-1-yl)prop-2-en-1-one] | > 5000 | 38 |  | 
C=CC(=O)N1CCN(c2nc(OC[C@@H]3CCCN3C)nc3c(OC4CC4)c(-c4c(C)ccc5[nH]ncc45)c(OC)cc23)CC1 [Compound Z49, 1-(4-(8-cyclopropoxy-6-methoxy-7-(5-methyl-1H-indazol-4-yl)-2-(((S)-1-methylpyrrolidin-2-yl)methoxy)quinazolin-4-yl)piperazin-1-yl)prop-2-en-1-one] | > 30000 | 83 |  | 
